The values that follow are results of earlier work, collected in patent publication US20140220138A1, “ENHANCED NITRIC OXIDE DELIVERY AND USES THEREOF” (Albert Einstein College of Medicine of Yeshiva University, priority 2011, published 2014).

Series [1] relates to E. coli (ATCC 25922).
For series [2], the system named is Bacillus subtilis.

≈ marks a conversion by molar mass, not a printed value.

The term MIC90 denotes the lowest concentration that inhibits either 90% of growth or 90% of the strains tested, depending on the study. Turning to `N[C@@H](CCC(=O)N[C@@H](CSN=O)C(=O)NCC(=O)O)C(=O)O` [GSNO, S-nitrosoglutathione], the MIC90 in series [1] is 5 mM (≈ 1680 µg/mL).

As to `[N]=O` [NO, nitric oxide], the “reduction in Bacillus viability” value in series [2] (20-25 μM NO repetitively added over time) is given as 100 fold. The “viability after exposure to NO” value in series [2] (exposure to either 50 or 200 μM NO) is “no significant loss in viability”.
